Reference: patent US11142526B2, “Spirocycle compounds and methods of making and using same” (H. Lundbeck A/S, priority 2017, dated 2021)
Where two headings read alike, the source gives them in different places.

Tests used:
MAGL [1] = target: T1, MAGL (Mus musculus (Mouse), UniProt O35678); test: Mouse brain proteomes from inhibitor treated mice (oral gavage, brain MAGL activity 4 h after administration); format: in vivo; details: 5 mg/kg oral gavage
Protocol: Preparation of Mouse Brain Proteomes from Inhibitor Treated Mice.
Inhibitors were administered to wild-type C57B1/6J by oral gavage in a vehicle of polyethylene glycol.

MAGL [2] = target: T1, MAGL; test: In vitro competitive activity-based protein profiling, mouse brain proteome; format: biochemical; details: for inhibition at 1 µM: mouse; for IC50: mouse brain
MAGL [3] = target: MAGL (Homo sapiens (Human), UniProt Q99685); test: In vitro competitive activity-based protein profiling (gel-based, FP-Rh or HT-01 probe); format: biochemical; details: for IC50: read-out: MAGL Human PC3 (IC50)
Sequence of MAGL (Homo sapiens (Human), UniProt Q99685) (Q99685 whole entry): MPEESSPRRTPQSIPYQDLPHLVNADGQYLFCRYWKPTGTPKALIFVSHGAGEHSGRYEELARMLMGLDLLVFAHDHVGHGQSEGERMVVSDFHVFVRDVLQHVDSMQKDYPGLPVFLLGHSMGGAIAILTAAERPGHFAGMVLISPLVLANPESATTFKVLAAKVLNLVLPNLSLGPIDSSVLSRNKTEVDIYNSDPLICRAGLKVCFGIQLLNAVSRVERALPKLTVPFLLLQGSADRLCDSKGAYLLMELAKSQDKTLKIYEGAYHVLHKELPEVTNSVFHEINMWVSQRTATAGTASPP
Protocol: In Vitro Competitive Activity-Based Protein Profiling.
Proteomes (human prefrontal cortex or cell membrane fractions) (50 μL, 1.0 mg/mL total protein concentration) were preincubated with varying concentrations of inhibitors at 37° C. After 30 min, FP-Rh or HT-01 (1.0 μL, 50 μM in DMSO) was added and the mixture was incubated for another 30 min at room temperature. Reactions were quenched with SDS loading buffer (15 μL—4×) and run on SDS-PAGE.

[4] = human PC3, read-out: MAGL % Inhibition at 1 μM (human PC3)
[5] = human PFC (prefrontal cortex), read-out: MAGL % Inhibition at 1 μM (human PFC)

T1 sequence (O35678 whole entry): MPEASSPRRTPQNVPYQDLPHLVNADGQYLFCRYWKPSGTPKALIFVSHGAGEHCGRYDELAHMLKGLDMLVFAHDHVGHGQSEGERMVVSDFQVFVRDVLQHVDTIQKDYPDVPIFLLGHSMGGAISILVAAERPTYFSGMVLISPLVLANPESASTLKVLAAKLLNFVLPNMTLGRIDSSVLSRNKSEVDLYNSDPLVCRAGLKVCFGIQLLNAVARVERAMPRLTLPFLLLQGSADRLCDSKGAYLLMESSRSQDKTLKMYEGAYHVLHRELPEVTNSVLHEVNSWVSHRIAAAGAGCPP

Compound	MAGL % Inhibition at 5 mg/kg (Mouse) (MAGL [1])	inhibition at 1 µM (MAGL [2])	IC50 (MAGL [2])	IC50 (MAGL [3]; human PC3)	inhibition at 1 µM (MAGL [3]; [4])	inhibition at 1 µM (MAGL [3]; [5])
O=C(OC(C(F)(F)F)C(F)(F)F)N1CCC2(CCCN2Cc2sc3ccccc3c2Cl)CC1 [Example 42, 1,1,1,3,3,3-Hexafluoropropan-2-yl 1-((3-chlorobenzo[b]thiophen-2-yl)methyl)-1,8-diazaspiro[4.5] decane-8-carboxylate]	### (% inhibition is greater than or equal to 75%)	> 75%	< 100 nM			
O=C(OC(C(F)(F)F)C(F)(F)F)N1CCC2(CCCN2C(=O)c2cc3cc(Cl)cc(Cl)c3[nH]2)CC1 [Example 16, 1,1,1,3,3,3-Hexafluoropropan-2-yl 1-(5,7-dichloro-1H-indole-2-carbonyl)-1,8-diazaspiro[4.5]decane-8-carboxylate]	### (% inhibition is greater than or equal to 75%)	> 75%	< 100 nM			
COc1ccc(-c2cc(CN3CCCC34CCN(C(=O)OC(C(F)(F)F)C(F)(F)F)CC4)no2)cc1 [Example 46, 1,1,1,3,3,3-Hexafluoropropan-2-yl 1-((5-(4-methoxyphenyl)isoxazol-3-yl)methyl)-1,8-diazaspiro[4.5] decane-8-carboxylate]	## (% inhibition is less than 75% and greater than 25%)		< 100 nM			
Cc1c(CN2CCCC23CCN(C(=O)OC(C(F)(F)F)C(F)(F)F)CC3)sc2ccccc12 [Example 43, 1,1,1,3,3,3-Hexafluoropropan-2-yl 1-((3-methylbenzo[b]thiophen-2-yl)methyl)-1,8-diazaspiro[4.5] decane-8-carboxylate]	### (% inhibition is greater than or equal to 75%)		< 100 nM			
Cc1c(C(=O)N2CCCC23CCN(C(=O)OC(C(F)(F)F)C(F)(F)F)CC3)[nH]c2ccc(Cl)cc12 [Example 109, 1,1,1,3,3,3-Hexafluoropropan-2-yl 1-(5-chloro-3-methyl-1H-indole-2-carbonyl)-1,8-diazaspiro[4.5] decane-8-carboxylate]	### (% inhibition is greater than or equal to 75%)	> 75%	< 100 nM			
CC(C)c1cc(CN2CCC3(CCN(C(=O)OC(C(F)(F)F)C(F)(F)F)CC3)C2)n(-c2ccccc2Cl)n1 [Example 216, 1,1,1,3,3,3-Hexafluoropropan-2-yl 2-((1-(2-chlorophenyl)-3-isopropyl-1H-pyrazol-5-yl)methyl)-2,8-diazaspiro[4.5]decane-8-carboxylate]	### (% inhibition is greater than or equal to 75%)	> 75%	< 100 nM			
CC(C)n1cc(CN2CCC3(CCN(C(=O)OC(C(F)(F)F)C(F)(F)F)CC3)C2)c(-c2ccccc2)n1 [Example 6, 1,1,1,3,3,3-Hexafluoropropan-2-yl 2-((1-isopropyl-3-phenyl-1H-pyrazol-4-yl)methyl)-2,8-diazaspiro[4.5]decane-8-carboxylate]	## (% inhibition is less than 75% and greater than 25%)	> 75%	< 100 nM			
CC(C)c1cc(CN2CCC3(CCN(C(=O)OC(C(F)(F)F)C(F)(F)F)CC3)C2)n(C2CCOCC2)n1 [Example 214, 1,1,1,3,3,3-Hexafluoropropan-2-yl 2-((3-isopropyl-1-(tetrahydro-2H-pyran-4-yl)-1H-pyrazol-5-yl)methyl)-2,8-diazaspiro[4.5]decane-8-carboxylate]	### (% inhibition is greater than or equal to 75%)	> 75%	< 100 nM			
O=C(OC(C(F)(F)F)C(F)(F)F)N1CCC2(CCCN2Cc2cc3cc(F)ccc3[nH]2)CC1 [Example 52, 1,1,1,3,3,3-Hexafluoropropan-2-yl 1-((5-fluoro-1H-indol-2-yl)methyl)-1,8-diazaspiro[4.5] decane-8-carboxylate]	### (% inhibition is greater than or equal to 75%)	> 75%	< 100 nM			
O=C(OC(C(F)(F)F)C(F)(F)F)N1CCC2(CCCN2Cc2cc3ccccc3s2)CC1 [Example 223, 1,1,1,3,3,3-Hexafluoropropan-2-yl 1-(benzo[b]thiophen-2-ylmethyl)-1,8-diazaspiro[4.5] decane-8-carboxylate]	### (% inhibition is greater than or equal to 75%)	> 75%	< 100 nM			
O=C(OC(C(F)(F)F)C(F)(F)F)N1CCC2(CCCN2Cc2csc(-c3ccccc3)n2)CC1 [Example 227, 1,1,1,3,3,3-Hexafluoropropan-2-yl 1-((2-phenylthiazol-4-yl)methyl)-1,8-diazaspiro[4.5]decane-8-carboxylate]	### (% inhibition is greater than or equal to 75%)	> 75%	< 100 nM			
O=C(OC(C(F)(F)F)C(F)(F)F)N1CCC2(CCCN2Cc2cc3cc(C(F)(F)F)ccc3s2)CC1 [Example 41, 1,1,1,3,3,3-Hexafluoropropan-2-yl 1-((5-(trifluoromethyl)benzo[b]thiophen-2-yl)methyl)-1,8-diazaspiro[4.5] decane-8-carboxylate]	### (% inhibition is greater than or equal to 75%)	> 75%	< 100 nM			
O=C(OC(C(F)(F)F)C(F)(F)F)N1CCC2(CCCN2C(=O)c2cc3cc(C(F)(F)F)ccc3s2)CC1 [Example 102, 1,1,1,3,3,3-Hexafluoropropan-2-yl 1-(5-(trifluoromethyl)benzo[b]thiophene-2-carbonyl)-1,8-diazaspiro[4.5] decane-8-carboxylate]	### (% inhibition is greater than or equal to 75%)	> 75%	< 100 nM			
CCc1cc(CN2CCC3(CCN(C(=O)OC(C(F)(F)F)C(F)(F)F)CC3)C2)n(-c2ccccc2Cl)n1 [Example 215, 1,1,1,3,3,3-Hexafluoropropan-2-yl 2-((1-(2-chlorophenyl)-3-ethyl-1H-pyrazol-5-yl)methyl)-2,8-diazaspiro[4.5]decane-8-carboxylate]	### (% inhibition is greater than or equal to 75%)	> 75%	< 100 nM			
Cc1c(C(=O)N2CCCC23CCN(C(=O)OC(C(F)(F)F)C(F)(F)F)CC3)[nH]c2ccc(F)cc12 [Example 104, 1,1,1,3,3,3-Hexafluoropropan-2-yl 1-(5-fluoro-3-methyl-1H-indole-2-carbonyl)-1,8-diazaspiro[4.5]decane-8-carboxylate]		> 75%	< 100 nM	< 100 nM		
O=C(OC(C(F)(F)F)C(F)(F)F)N1CCC2(CCCN2C(=O)C2(c3ccnc(C4CC4)n3)CC2)CC1 [Example 201, 1,1,1,3,3,3-Hexafluoropropan-2-yl 1-(1-(2-cyclopropylpyrimidin-4-yl)cyclopropane-1-carbonyl)-1,8-diazaspiro [4.5]decane-8-carboxylate]		> 75%		< 100 nM	> 75%	> 75%
O=C(OC(C(F)(F)F)C(F)(F)F)N1CCC2(CCCN2C(=O)c2cn3ccccc3n2)CC1 [Example 69, 1,1,1,3,3,3-Hexafluoropropan-2-yl 1-(imidazo[1,2-a]pyridine-2-carbonyl)-1,8-diazaspiro[4.5] decane-8-carboxylate]		> 75%	< 100 nM	< 100 nM		
O=C(OC(C(F)(F)F)C(F)(F)F)N1CCC2(CCCN2C(=O)c2cn3ccncc3n2)CC1 [Example 159, 1,1,1,3,3,3-Hexafluoropropan-2-yl 1-(imidazo[1,2-a]pyrazine-2-carbonyl)-1,8-diazaspiro[4.5] decane-8-carboxylate]		> 75%		< 100 nM		> 75%
O=C(OC(C(F)(F)F)C(F)(F)F)N1CCC2(CCCN2Cc2cnc(N3CCN(C4CC4)CC3)s2)CC1 [Example 132, 1,1,1,3,3,3-Hexafluoropropan-2-yl 1-((2-(4-cyclopropylpiperazin-1-yl)thiazol-5-yl)methyl)-1,8-diazaspiro[4.5] decane-8-carboxylate]		> 75%		< 100 nM		> 75%
O=C(OC(C(F)(F)F)C(F)(F)F)N1CCC2(CCCN2C(=O)c2ncccn2)CC1 [Example 12, 1,1,1,3,3,3-Hexafluoropropan-2-yl 1-(pyrimidine-2-carbonyl)-1,8-diazaspiro[4.5]decane-8-carboxylate]		< 25%				< 25%
O=C(OC(C(F)(F)F)C(F)(F)F)N1CCC2(CCCN2C(=O)c2cnn3c2NCCC3)CC1 [Example 147, 1.1,1,3,3,3-Hexafluoropropan-2-yl 1-(4,5,6,7-tetrahydropyrazolo [1,5-a]pyrimidine-3-carbonyl)-1,8-diazaspiro[4.5] decane-8-carboxylate]		> 75%		< 100 nM	> 75%	> 75%
CC1(NC(=O)c2cn3c(n2)CN(c2cnccn2)CC3)CCN(C(=O)OC(C(F)(F)F)C(F)(F)F)CC1 [Example 29, 1,1,1,3,3,3-Hexafluoropropan-2-yl 4-methyl-4-(7-(pyrazin-2-yl)-5,6,7,8-tetrahydroimidazo[1,2-a]pyrazine-2-carboxamido)piperidine-1-carboxylate]		> 75%			> 75%	
